This note sets out measurements from ChEMBL document CHEMBL1129832, “Rational design, synthesis, and serine protease inhibitory activity of a novel P1-argininal derivative featuring a conformationally constrained P2P3 bicyclic lactam moiety” (Bioorg Med Chem Lett, 1997).

pIC50: −log10 of the molar value.

Assay [1] has as its target T1, Plasminogen (Homo sapiens, UniProt P00747).
For assay [2], the target named is Tissue-type plasminogen activator (Homo sapiens, UniProt P00750). In words: In vitro inhibitory concentration required to inhibit tissue plasminogen activator cleavage of the chromogenic substrate by 50%; Inactive.
Assay [3] has as its target Prothrombin (Homo sapiens, UniProt P00734).
Assay [4] has as its target Serine protease 1 (Homo sapiens, UniProt P07477).
For assay [5], the target named is Coagulation factor X (Homo sapiens, UniProt P00742).
Description: In vitro inhibitory concentration required to inhibit Coagulation factor X by 50%
In assay [6] the target is T1, Plasminogen. This is another data set of the same source.

T1 sequence (P00747 97-580 limits assumed): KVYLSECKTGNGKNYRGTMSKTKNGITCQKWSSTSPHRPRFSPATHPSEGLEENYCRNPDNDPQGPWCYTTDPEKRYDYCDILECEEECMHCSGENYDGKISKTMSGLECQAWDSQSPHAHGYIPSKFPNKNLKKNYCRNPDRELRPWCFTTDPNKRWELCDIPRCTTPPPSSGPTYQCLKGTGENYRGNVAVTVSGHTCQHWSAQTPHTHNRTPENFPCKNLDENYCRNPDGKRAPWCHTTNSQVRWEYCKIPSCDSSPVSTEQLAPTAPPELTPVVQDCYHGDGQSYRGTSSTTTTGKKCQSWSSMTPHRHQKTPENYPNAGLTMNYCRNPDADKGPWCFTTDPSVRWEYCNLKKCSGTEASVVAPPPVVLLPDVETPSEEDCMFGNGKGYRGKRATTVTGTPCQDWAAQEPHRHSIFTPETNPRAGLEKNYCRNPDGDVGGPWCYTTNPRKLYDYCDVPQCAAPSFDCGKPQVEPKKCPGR
T1 sequence (P00747 581-810 limits assumed): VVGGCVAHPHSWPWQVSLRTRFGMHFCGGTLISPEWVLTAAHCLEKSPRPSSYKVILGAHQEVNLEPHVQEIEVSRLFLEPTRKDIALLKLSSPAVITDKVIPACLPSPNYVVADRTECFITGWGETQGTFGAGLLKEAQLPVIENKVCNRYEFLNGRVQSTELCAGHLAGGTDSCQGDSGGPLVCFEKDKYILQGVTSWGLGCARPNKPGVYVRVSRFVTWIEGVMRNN
Tissue-type plasminogen activator, sequence (P00750 whole entry): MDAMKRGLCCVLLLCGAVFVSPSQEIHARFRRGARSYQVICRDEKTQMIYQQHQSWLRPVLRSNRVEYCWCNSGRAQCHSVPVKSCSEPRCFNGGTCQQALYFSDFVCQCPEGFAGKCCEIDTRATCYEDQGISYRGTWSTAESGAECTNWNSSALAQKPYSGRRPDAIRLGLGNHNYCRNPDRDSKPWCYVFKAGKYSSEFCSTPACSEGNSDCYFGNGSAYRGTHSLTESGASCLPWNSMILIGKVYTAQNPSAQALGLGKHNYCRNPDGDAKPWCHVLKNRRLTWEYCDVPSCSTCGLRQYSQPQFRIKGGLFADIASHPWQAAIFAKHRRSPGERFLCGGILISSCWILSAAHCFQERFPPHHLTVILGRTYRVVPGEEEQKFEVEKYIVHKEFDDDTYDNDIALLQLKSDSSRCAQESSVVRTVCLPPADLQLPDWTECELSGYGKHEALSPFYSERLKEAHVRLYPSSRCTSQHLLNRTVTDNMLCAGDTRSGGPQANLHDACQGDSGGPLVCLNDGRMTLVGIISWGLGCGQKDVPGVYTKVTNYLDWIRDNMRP
Serine protease 1, sequence (P07477 whole entry): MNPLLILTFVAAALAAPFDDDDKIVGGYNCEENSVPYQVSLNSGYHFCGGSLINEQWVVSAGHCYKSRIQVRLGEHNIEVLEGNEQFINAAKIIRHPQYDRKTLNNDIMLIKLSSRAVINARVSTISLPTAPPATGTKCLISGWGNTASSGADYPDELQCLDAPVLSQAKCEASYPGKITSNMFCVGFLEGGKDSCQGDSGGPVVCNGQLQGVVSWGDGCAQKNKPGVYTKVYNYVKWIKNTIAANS
Coagulation factor X, sequence (P00742 41-179 limits assumed): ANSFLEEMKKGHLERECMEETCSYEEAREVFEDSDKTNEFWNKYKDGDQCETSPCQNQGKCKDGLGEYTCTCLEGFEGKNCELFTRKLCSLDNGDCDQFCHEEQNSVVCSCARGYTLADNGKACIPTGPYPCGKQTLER
Coagulation factor X, sequence (P00742 235-488 limits assumed): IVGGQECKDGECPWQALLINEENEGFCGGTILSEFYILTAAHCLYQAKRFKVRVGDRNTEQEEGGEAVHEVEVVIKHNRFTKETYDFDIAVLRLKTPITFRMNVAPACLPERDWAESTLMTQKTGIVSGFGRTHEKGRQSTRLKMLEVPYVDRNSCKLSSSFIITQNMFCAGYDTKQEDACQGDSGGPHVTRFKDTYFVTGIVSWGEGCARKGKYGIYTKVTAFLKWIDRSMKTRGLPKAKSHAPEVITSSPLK

One may read the pIC50 as the negative decadic logarithm of the IC50, by convention in mol/L. A higher pIC50 goes with a low IC50. Turning to `CCCC(CCC)C(=O)N[C@@H](CC(=O)OC)C(=O)N1CCCC1C(=O)N[C@H]1CCCN(C(=N)N)C1O` (stereo partly specified), the pIC50 is 6.50 in assay [1], 8.96 in assay [3] and 8.87 in assay [4]. For the same molecule, the IC50 result in assay [2] was “Not Active”.
Take `N=C(N)N1CCC[C@H](NC(=O)C2CS[C@H]3CC[C@H](NS(=O)(=O)Cc4ccccc4)C(=O)N23)C1O` (stereo partly specified): the pIC50 was 6.03 in assay [1], less than 5.60 in assay [5], 7.79 in assay [3] and 7.94 in assay [4]. The IC50 entry in assay [2] is “Not Active”.
Turning to `COC(=O)C[C@H](NS(=O)(=O)Cc1ccccc1)C(=O)N1CCCC1C(=O)N[C@H]1CCCN(C(=N)N)C1O` (stereo partly specified), the pIC50 in assay [1] is 7.83; in assay [5] it was 7.53; in assay [3], 8.30; in assay [4], 8.59.
`N=C(N)N1CCC[C@H](NC(=O)CN2CCC[C@H](NS(=O)(=O)Cc3ccccc3)C2=O)C1O` (stereo partly specified): the IC50 entry in assay [2] and in assay [6] was “Not Active” each time. Moreover, the pIC50 in assay [5] was less than 5.60.
